Data from patent US9326513B2, “Fungicidal compositions” (Syngenta Participations AG, priority 2011, dated 2016).
“And” between values parts separate entries of the source, which are not always exact repeats. Identical values can stand only once.

Tests used:
[1] = tested on: Mycosphaerella arachidis (y. Cercospora arachidicola); assay: Mycosphaerella arachidis (brown leaf spot of groundnut), PDB microtiter plate, visual after 5-6 days; type: cell-based; details: single compound
[2] = tested on: Fusarium graminearum and Fusarium culmorum; type: in vivo; details: solo, 200 g a.i./ha; wheat, 1 day preventive, 9 days after application
[3] = tested on: Blumeria graminis f. sp. tritici (Erysiphe graminis f. sp. tritici); assay: Blumeria graminis f. sp. tritici / wheat / leaf disc preventative (powdery mildew on wheat); type: in vivo; details: foliar, compared to untreated control leaf disks, read-out: disease control
Method in brief: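 Wheat leaf segments (cv. Kanzler) on agar were sprayed with formulated compound in water, inoculated with powdery mildew 1 day later, and kept at 20° C, 60% rh (24 h dark, then 12 h light/12 h dark). Percent disease control versus untreated scored 6-8 days after application; tested at 200 ppm.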

[4] = tested on: Monographella nivalis (syn. Microdochium nivale, Fusarium nivale); assay: Monographella nivalis (snow mould, foot rot of cereals), PDB microtiter plate, visual after 72 hrs; type: cell-based; details: applied alone
[5] = tested on: Puccinia recondita f. sp. tritici; assay: Puccinia recondita f. sp. tritici / wheat / leaf disc preventative (brown rust); type: in vivo; details: foliar, compared to untreated control leaf disks, read-out: disease control
Excerpt: Puccinia recondita f. sp. tritici/Wheat/Leaf Disc Preventative (Brown Rust) Wheat leaf segments cv. Kanzler were placed on agar in multiwell plates (24-well format) and sprayed with the formulated test compound diluted in water. The leaf disks were inoculated with a spore suspension of the fungus 1 day after application.

Sclerotinia sclerotiorum = Sclerotinia sclerotiorum on oilseed rape, preventive treatment; type: in vivo; details: solo, 1 day preventive, 11 days after application
Excerpt: In the following Tables ‘Activity (%)’ means the assessed experimental activity (% disease control in this test when compared to untreated control leaf disks under the same conditions, which show extensive disease development) and “P” is the expected value calculated (expected) activity according to the COLBY formula (see above). The column headed ‘S?’ indicates whether or not synergy was observed, with ‘y’ meaning that synergy was observed.
Sclerotinia sclerotiorum on Oilseed Rape, Preventive Treatment
The compound activity was tested under 1 day preventive conditions. Oilseed rape plants with 3 unfolded leafs were sprayed with a track sprayer and 200 I/ha spray volume with the test compounds, either solo or in tankmix as shown in the table below.
1 day after application the plants were infested with a solution of Sclerotinia sclerotiorum mycelium. The plants were placed under plastic hoods and high humidity conditions in a climate chamber at 14 h day/10 h night cycle and 15° C. Disease infestation was evaluated visually 11 days after application and average activity calculated in relation to disease severity on untreated check.

Sphaerotheca fuliginea = Sphaerotheca fuliginea (powdery mildew) on cucumber, preventive treatment; type: in vivo; details: solo, 2 days preventive, 10 days after application
Excerpt: In the following Tables 'Activity (%)' means the assessed experimental activity (% disease control in this test when compared to untreated control leaf disks under the same conditions, which show extensive disease development) and “P” is the expected value calculated (expected) activity according to the COLBY formula (see above). The column headed 'S?' indicates whether or not synergy was observed, with 'y' meaning that synergy was observed. Sphaerotheca fuliqinea (Powdery Mildew) on Cucumber, Preventive Treatment […] Cucumber plants with unfolded cotyledons were sprayed with a roomsprayer and 40 ml/4 plants spray volume with the test compounds, either solo or in […] shown in the table below. 2 days after application the plants were infested with spores of Sphaerotheca fuliginea.

Botrytis cinerea = Botrytis cinerea (gray mould), PDB microtiter plate, visual after 72 hrs; type: cell-based; details: alone
[6] = tested on: Puccinia recondita f. sp. tritici; assay: Puccinia recondita f. sp. tritici / wheat / leaf disc curative (brown rust); type: in vivo; details: foliar, compared to untreated control leaf disks, read-out: disease control
Protocol: Puccinia recondita f. sp. tritici/Wheat/Leaf Disc Curative (Brown Rust) Wheat leaf segments cv. Kanzler are placed on agar in multiwell plates (24-well format). The leaf segments are inoculated with a spore suspension of the fungus. Plates were stored in darkness at 19° C. and 75% rh. The formulated test compound diluted in water was applied 1 day after inoculation.

[7] = tested on: Phakopsora pachyrhizi (triazole tolerant soybeanrust strain); assay: Phakopsora pachyrhizi on soybean, preventive treatment; type: in vivo; details: solo, soybean leaf discs, 1 day preventive, 11 days after application
Septoria tritici [8] = assay: Septoria tritici on wheat, preventive treatment; type: in vivo; details: solo, wheat Riband, 1 day preventive, 18 days after application
Septoria tritici [9] = assay: Septoria tritici (leaf blotch), YBG microtiter plate, photometric growth inhibition after 6 days; type: cell-based; details: Zymoseptoria tritici, 144 h, solo

## CCN(C)/C=N/c1cc(Br)c(O[C@H]2CC[C@@H](C(C)C)CC2)nc1C [Q.135]
[1]; Mycosphaerella arachidis, 0.00390625 ppm, read-out: Activity (%)
  inhibition at 0.00390625 ppm: 0%
[1]; Mycosphaerella arachidis, 0.03125 ppm, read-out: Activity (%)
  inhibition at 0.03125 ppm: 50%
[1]; Mycosphaerella arachidis, 0.0625 ppm, read-out: Activity (%)
  inhibition at 0.0625 ppm: 50%
[1]; Mycosphaerella arachidis, 0.15625 ppm
  inhibition at 0.15625 ppm: 0%
[1]; 0.015625 ppm
  Activity (%): 20%
[1]; 0.03125 ppm
  Activity (%): 70%
[1]; 0.0625 ppm
  Activity (%): 70%
[2]
  Activity: 28%
[3]
  pest or weed control at 200 ppm: ≥ 50%
[4]; Monographella nivalis, rate 0.0078125 ppm
  inhibition at 0.0078125 ppm: 0%
[4]; Monographella nivalis, rate 0.015625 ppm
  inhibition at 0.015625 ppm: 0%
[4]; Monographella nivalis, rate 0.125 ppm
  inhibition at 0.125 ppm: 70%
[4]; Monographella nivalis, rate 0.3125 ppm
  inhibition at 0.3125 ppm: 0%
[4]; Monographella nivalis, rate 0.625 ppm
  inhibition at 0.625 ppm: 50%
[4]; rate 0.0625 ppm
  Activity (%): 20%
[5]
  pest or weed control at 200 ppm: ≥ 50%
Sclerotinia sclerotiorum; rate 25 ppm
  Activity: 0%
Sclerotinia sclerotiorum; rate 50 ppm
  Activity: 0%
Sclerotinia sclerotiorum; rate 100 ppm
  Activity: 15%
Sphaerotheca fuliginea; rate 0.2 ppm
  Activity: 0%
Sphaerotheca fuliginea; rate 0.6 ppm
  Activity: 0%
Sphaerotheca fuliginea; rate 2 ppm
  Activity: 0%
Botrytis cinerea; Botrytis cinerea, rate 0.00390625 ppm
  inhibition at 0.00390625 ppm: 0%
Botrytis cinerea; Botrytis cinerea, rate 0.0078125 ppm
  inhibition at 0.0078125 ppm: 0%
Botrytis cinerea; Botrytis cinerea, rate 0.015625 ppm
  inhibition at 0.015625 ppm: 0%
Botrytis cinerea; Botrytis cinerea, rate 0.03125 ppm, read-out: Activity (%)
  inhibition at 0.03125 ppm: 0%
Botrytis cinerea; Botrytis cinerea, rate 0.0625 ppm, read-out: Activity (%)
  inhibition at 0.0625 ppm: 0%
Botrytis cinerea; Botrytis cinerea, rate 0.125 ppm
  inhibition at 0.125 ppm: 0%
Botrytis cinerea; Botrytis cinerea, rate 0.25 ppm
  inhibition at 0.25 ppm: 0%
Botrytis cinerea; Botrytis cinerea, rate 2 ppm
  inhibition at 2 ppm: 70%
Botrytis cinerea; rate 0.5 ppm
  Activity (%): 20%
Botrytis cinerea; rate 1 ppm
  Activity (%): 20%
Botrytis cinerea; rate 2 ppm
  Activity (%): 50%
[6]
  pest or weed control at 200 ppm: ≥ 50%
[7]; rate 0.5 g ai/ha
  Activity: 13%
[7]; rate 2 g ai/ha
  Activity: 41%
Septoria tritici [8]; 1 g a.i./ha
  Activity: 0%
Septoria tritici [8]; 3 g a.i./ha
  Activity: 0% and 9%
Septoria tritici [8]; 9 g a.i./ha
  Activity: 33% and 43%
Septoria tritici [8]; 27 g a.i./ha
  Activity: 52% and 82%
Septoria tritici [8]; 81 g a.i./ha
  Activity: 70%
Septoria tritici [9]; rate 0.15625 ppm, read-out: Activity
  inhibition of growth at 0.15625 ppm: 29%
Septoria tritici [9]; rate 0.3125 ppm
  inhibition of growth at 0.3125 ppm: 34%
Septoria tritici [9]; rate 0.625 ppm
  inhibition of growth at 0.625 ppm: 32%
Septoria tritici [9]; rate 1.25 ppm
  inhibition of growth at 1.25 ppm: 22%
